# Read-outs that look alike come from different tables or passages of the source. Marks after values point to notes of the source that are not given here. Non-standard residues stand in square brackets, D forms with d. Aib = CC(C)(N)C(=O)O
# Experiments:
# BV2 microglial cells = tested on: BV2 microglial cells
# Experimental: For suppression of inflammation profiling, each peptide analog was tested at a final concentration of 0.1, […], 1, 3, 5, 10 and 25 μM in an LPS induced BV2 microglial cell release of NO and/or TNFα. […] The modification was a biotin label on the apoE peptide (biotin-[…]-amide) which allows detection with ^125I-streptavidin (ISA, Amersham).
# In overview, BV-2 cells are plated in 96 well plates in complete media and then the media is replaced the next day with serum free media or reduced serum (1%) media. […] Each concentration of peptide (standard initial concentrations are 0.1, 0.5, 1, 3, 10 and 25 μM) is added to at least 6 wells of cells (e.g. 6 wells get 0.1 μM peptide, 6 wells get 0.5 μM peptide, etc.) and data are averaged from all 6 wells. […] (2001). Cell viability is also measured with an MTT assay (Laskowitz et al. 2001).
# [1] = tested on: mice with traumatic brain injury; experiment: Closed head injury model of traumatic brain injury (rotorod, Morris Water Maze); settings: for In vivo Therapeutic window time expanded?: mouse
# Experimental: C57Bl/6J male mice (The Jackson Laboratory, ME), 12-16 weeks of age and weighing 24-32 g, are used for all experiments. Anesthesia is first induced with isoflurane in 30% O2/balance N2. The trachea is intubated and the lungs mechanically ventilated with 1.6% isoflurane in 30% O2/balance N2. Temperature is monitored with a rectal probe and maintained at 36.5° C. with a heat lamp. The right internal jugular vein is cannulated with silicone catheter. […] Intubated animals are then placed prone on a molded acrylic cast (FIG. 6A). […] The scalp is incised and the skull exposed. A concave 3 mm metallic disc is secured to the skull surface (with the concave surface in juxtaposition to the skull) by an adhesive. […] The disc is placed directly midline just caudal to bregma (FIG. 6B). […] The mice are positioned in a stereotactic frame. Although the stereotactactic frame helps to stabilize the animal and exactly calibrate the vertical displacement on impact (3 mm), ear bars are not used due to a much higher rate of skull fracture (or brainstem injury if the head rotates around the axis of the ear bars during impact). The piston is discharged at 6.8±0.2 m/s so as to impact the skull in the acrylic mold to move a maximum of approximately 3 mm (FIG. 6C). Inspired isoflurane is decreased to 0.7% immediately after impact. The scalp was infiltrated with lidocaine and closed with suture. Ophthalmic ointment was applied to the eyes for protection. The incidence of skull fracture is low (approximately 10%), as the metal disk helps to diffuse the impact, and the absence of ear bar fixation allows for displacement of the entire head. Mice were excluded if a depressed skull fracture was observed (incidence of approximately 10%). The animals are allowed to recover spontaneous ventilation then extubated. […] In these mice, arterial blood pressure, blood gas and glucose measurement at baseline, immediately after injury, and 15 minutes after injury are monitored during the recovery period.
# Briefly, baseline performance on rotorod is established before the mice are intubated, the skin over the scalp reflected and a controlled cortical impact from a pneumatic impactor given on the midline. The skin is closed with surgical clips and the animals are constantly monitored until awake from anesthesia and then hourly for the next 4 hours. […] Performance on rotorod is tested at 24 hours post impaction and then every day for 5 days and data is presented as described. Groups of 12 mice are used for each compound at 0.5×MTD. […] Novel peptides and non-peptide analogs are also given by tail vein injection.
# Daily Rotarod (RR) testing was used to assess short term motor and cerebellar deficit following head injury (Hamm et al., 1994). Mice were held by their tails and placed on the RR facing the wall by using gentle swinging motion while running in a constant speed mode.
# peritoneal macrophages = experiment: Peritoneal macrophage production of NO, TNFα and IL-6 induced by MOG or LPS/IFN-γ; format: cell-based, mouse
# Experimental: For this purpose, three mice with clinical scores of 0 and three with clinical scores of 4 at 30 dpi (day post-immunization) were used for preparation of peritoneal macrophage cultures. Macrophages were collected after peritoneal lavage with 3 ml heparin (10 U/ml)-containing PBS and then seeded to 96-well microplates at a density of 1×10^5 cells/well in Dulbecco's MEM containing 10% fetal bovine serum, 2 mM L-glutamine serum, 1% HEPES and 100 U/ml penicillin and 100 μg/ml streptomycin, 37° C. in a humidified incubator with 5% CO2. 24 h later, the serum-containing medium was removed and cells were washed once with serum-free medium. To examine the differentiated response of macrophage to immune stimulators, macrophages obtained from mice with clinical scores of 0 or 4 were exposed to serial concentrations of IFN-γ/LPS or MOG35-55 peptide. […] Media were collected at 45 h or 72 h, and analyzed by ELISA for […] and IL-6 or for nitric oxide (NO) as detailed below.
# As the stable end product of nitric oxide release, nitrite levels in conditioned media were determined by injecting 50 μl media sample into a Sievers 280 NOA analyzer (Boulder, Colo., USA). Total protein (μg/well) was measured using the BCA method (Pierce, Rockford, Ill., USA) according to manufacturer's instructions with BSA as standard. BCA values were measured using a Molecular Devices Thermomax Microplate Reader (Menlo Park, Calif., USA) at OD562. Nitric oxide levels ere expressed as μM NO2—/mg protein.
# For cytokine assays, supernatants were collected 45 h after […]/LPS or MOG treatments and quantitative ELISAs using selected pairs of monoclonal antibodies (as recommended by the manufacturer Biosource) were performed to quantify the cytokines, TNF-α and IL-6. For TNF-α ELISA, 96-well ELISA plates were pre-coated with rabbit anti-mouse polyclonal to TNF-α as capture antibodies for 18 h at 2-8° C. and then blocked for 2 h at room temperature. The wells were incubated with samples or mouse TNF-α standards. Following incubation for 2 h at room temperature, the wells were washed, after which hamster anti-mouse TNF-α biotinylated secondary antibody and horseradish peroxidase conjugate were added. Tetramethylbenzidine (TMB) solution was then added, and peroxidase-catalyzed color change was stopped by acidification with 2 NH2SO4. The plates were scanned at wavelength 450 nm and the absorbance were measured. The results are expressed as the mean concentration (pg/ml) ±SEM.
# For IL-6 ELISA, rat anti-mouse monoclonal to IL-6 was used as capture antibody, and biotinylated rat anti-mouse monoclonal to IL-6 as detection antibody. The rest of procedure is identical to that of TNF-α ELISA.
# [2] = tested on: BV2 murine microglial cells
# Experimental: For Applicants preliminary work, the two most common PTDs, TAT and penetratin, were used.
# Cell Culture: BV-2, a well-characterized murine microglial cell line (Bochinni, 1992), is cultured in high glucose content DMEM supplemented with 1% penicillin/streptomycin, 10% fetal calf serum, 1% nonessential amino acids, and 1% sodium pyruvate. Cells are grown to confluency; trypsinized; spun down; resuspended in serum-free OptiMEM containing 1% N2 supplement, 1% penicillin/streptomycin, 1% nonessential amino acids, and 1% sodium pyruvate; and plated at a concentration of 20,000 cells/well to remove any nonadherent cells and serum.
# Supernatant is collected 24 and/or 48 h after LPS stimulation and assayed for nitrite.
# Quantification of Nitric Oxide (NO): Accumulation of nitrite (stable end product of NO production) in the medium is measured by colometric Griess reagent system (Promega); the absorbance is determined at 540 nm.
# Cell Viability Assay: Cell viability is measured using a nonradioactive cell viability assay (cell titer 96 AQ, Promega). The assay measures the bioreduction of MTS (3-(4,5-dimethylthiazole-2-)-5-(3-carboxymethoxyphenyl)-2-(4-sulfophenyl)-2H-tetrazolium by viable cells into formazan. The absorbance of the calorimetric assay is measured at λ 490 nm. Viability is assessed and used to normalize the nitrite data.
# [3] = tested on: mice infected with C. rodentium; experiment: C. rodentium colitis; format: in vivo; settings: for Colon wt (% Total Body wt) / Histology Score / Body wt (% Total Body wt): WT mice, 10 days; for Body wt (% Total Body wt): 0.1% BEC or 2.5% DFMO
# Text: C. rodentium colitis: Of the two existing mouse models (Gobert A P et al., 2004; Cheng Y. et al., 2003), the C. rodentium model was selected because it produces a Th1-predominant mucosal inflammation that has histologic changes similar to human IBD (Higgins L M et al., 1999). In this model, mice are infected by oral gavage with C. rodentium (Gobert A P et al., 2004), a gram negative pathogenic bacterium that is the rodent equivalent of enteropathogenic E. coli that causes diarrhea in humans.
# Since arginase I and iNOS were both abundantly expressed in the colitis tissues and L-Arg was completely metabolized, we investigated the effect of administration of 1% L-Arg in the drinking water. In wild type (WT) mice, C. rodentium colitis induced a high level of mortality that began on day 9 post-infection (FIG. 31A). In WT animals treated with L-Arg, mortality was inhibited by 42% and 62% compared to mice receiving water alone, after 12 and 14 days of infection, respectively (FIG. 31A). By Cox regression analysis, WT mice treated with L-Arg had only a 31% hazard of death compared with mice receiving water alone (p<0.0009). In iNOS^−/− mice, no deaths were observed, with or without L-Arg (FIG. 31A). […] Note that the weight loss of WT mice is underestimated, since only the weights of animals still alive could be included. […] There was an additive effect of iNOS deletion and L-Arg administration, with a 68% decrease in colon weight. Neither iNOS deletion nor L-Arg treatment affected colon weight in uninfected control mice. Importantly, these changes were closely paralleled by changes in colon histology (FIG. 32).
# In uninfected control mice, BEC or DFMO had no effect (Table I). […] In fact, experiments had to be terminated early at 10 days post-infection, because of deaths and severe disease at this point.
molecule,measurement,setting,value
"ApoE 139-149: truncated apoE peptide, residues 139-149 (SHLRKLRKRLL; UniProt P02649 157-167, looked up, fragment)",Activity at 25 μM in suppression of NO / TNFα release,BV2 microglial cells,failed to show activity
Ac-ASHLRKL-Aib-KRLL-NH2 (Ac-ASHLRKL[Aib]KRLL-NH2; SMILES CC(=O)N[C@@H](C)C(=O)N[C@@H](CO)C(=O)N[C@@H](Cc1c[nH]cn1)C(=O)N[C@@H](CC(C)C)C(=O)N[C@@H](CCCNC(=N)N)C(=O)N[C@@H](CCCCN)C(=O)N[C@@H](CC(C)C)C(=O)NC(C)(C)C(=O)N[C@@H](CCCCN)C(=O)N[C@@H](CCCNC(=N)N)C(=O)N[C@@H](CC(C)C)C(=O)N[C@@H](CC(C)C)C(N)=O) [COG432],Rotorod performance (100% is performance prior to TBI),"[1]; 4 mg/kg, started 2 hours post TBI, day 5 post TBI",about 80%
"ApoE 135-149: truncated apoE peptide, residues 135-149 (VRLASHLRKLRKRLL; UniProt P02649 153-167, looked up, fragment)",Fold less potent than apoE 130-150,BV2 microglial cells,5 fold
"apoE 137-149: truncated apoE peptide, residues 137-149 (LASHLRKLRKRLL; UniProt P02649 155-167, looked up, fragment)",Activity at 25 μM in suppression of NO / TNFα release,BV2 microglial cells,failed to show activity
"apoE 136-149: truncated apoE peptide, residues 136-149 (RLASHLRKLRKRLL; UniProt P02649 154-167, looked up, fragment)",Fold less potent than apoE 130-150,BV2 microglial cells,8 fold
"apoE 130-147: truncated apoE peptide, residues 130-147 (TEELRVRLASHLRKLRKR; UniProt P02649 148-165, looked up, fragment)",Activity at 25 μM in suppression of NO / TNFα release,BV2 microglial cells,failed to show activity
"RQIKIWFQNRRMKWKK (Protein transduction domain conjugate Antp) [antennapedia prefix peptide, portion of antennapedia that serves as a prefix to COG133, reference compound]",Inhibition of cytokine production induced by MOG or LPS/IFN-γ,peritoneal macrophages,showed no activity
"apoE 134-149: truncated apoE peptide, residues 134-149 (RVRLASHLRKLRKRLL; UniProt P02649 152-167, looked up, fragment)",Fold less potent than apoE 130-150,BV2 microglial cells,2.5 fold
Ac-RRLSYSRRRFLRVRLASHLRKLRKRLL-NH2 (N-terminus and C-terminus assumed) [SynB3],"Rotorod latency, single tail vein injection 2 hours post TBI",[1]; 2 hours post traumatic brain injury,significantly improves outcome from head trauma
same,In vivo Therapeutic window time expanded?,[1],Yes; tested at 4 X
same,IC50,[2],5.9 µM
same,IC50,"[2]; read-out: IC50 TNFα, in vitro",5.1 µM
Ac-RRRRRRRRLRVRLASHLRKLRKRLL-NH2 (N-terminus and C-terminus assumed) [polyArg (8R)],IC50,[2],4 µM
same,IC50,"[2]; read-out: IC50 TNFα, in vitro",4.2 µM
Ac-RGGRLAYLRRRWAVLGRLRVRLASHLRKLRKRLL-NH2 (N-terminus and C-terminus assumed) [SynB5],In vivo Therapeutic window time expanded?,[1],No; Tested at 6 X
same,IC50,[2],3.2 µM
same,IC50,"[2]; read-out: IC50 TNFα, in vitro",4.2 µM
"NCCCC(N)(C(=O)O)C(F)F (centres unmarked) [DFMO, -difluoromethylornithine]",Colon wt (% Total Body wt),[3]; C. rodentium,"1.35 ± 0.12^b,d % Total Body wt"
same,Histology Score,[3]; C. rodentium,"9.54 ± 0.68^b,d"
same,Body wt (% Total Body wt),[3]; C. rodentium,"78.6 ± 0.4^b,c % Total Body wt"
same,Colon wt (% Total Body wt),[3]; PBS (uninfected),0.61 ± 0.07 % Total Body wt
same,Histology Score,[3]; PBS (uninfected),0.75 ± 0.25
same,Body wt (% Total Body wt),[3]; PBS (uninfected),101.3 ± 2.6 % Total Body wt
same,Survival of C. rodentium-infected mice,[3]; in the drinking water,significant loss of survival
same,Effect in uninfected control mice,"[3]; mouse, in vivo",had no effect
Ac-ASHLRKLRKRLL-NH2 [apoE 138-149],Activity at 25 μM in suppression of NO / TNFα release,BV2 microglial cells,failed to show activity
"apoE 130-148: truncated apoE peptide, residues 130-148 (TEELRVRLASHLRKLRKRL; UniProt P02649 148-166, looked up, fragment)",Activity at 25 μM in suppression of NO / TNFα release,BV2 microglial cells,failed to show activity
LRVRLASHLRKLRKRLA [L149A],EC50,"BV2 microglial cells; read-out: Structure activity in the COG133 peptide from single amino acid replacements, binding and/or suppression of NO or TNFα release, compared with 3.5 μM EC50 of COG133",> 3.5 µM
CSCC[C@H](NC(=O)[C@H](CCCNC(=N)N)NC(=O)[C@H](CCCNC(=N)N)NC(C)=O)C(=O)N[C@@H](CCCCN)C(=O)N[C@@H](Cc1c[nH]c2ccccc12)C(=O)N[C@@H](CCCCN)C(=O)N[C@@H](CCCCN)C(=O)N[C@@H](CC(C)C)C(=O)N[C@@H](CCCNC(=N)N)C(=O)N[C@H](C(=O)N[C@@H](CCCNC(=N)N)C(=O)N[C@@H](CC(C)C)C(=O)N[C@@H](C)C(=O)N[C@@H](CO)C(=O)N[C@@H](Cc1c[nH]cn1)C(=O)N[C@@H](CC(C)C)C(=O)N[C@@H](CCCNC(=N)N)C(=O)N[C@@H](CCCCN)C(=O)N[C@@H](CC(C)C)C(=O)N[C@@H](CCCNC(=N)N)C(=O)N[C@@H](CCCCN)C(=O)N[C@@H](CCCNC(=N)N)C(=O)N[C@@H](CC(C)C)C(=O)N[C@@H](CC(C)C)C(N)=O)C(C)C [antp (52-58)],IC50,[2],11 µM

# From patent US20090042783A1, “APO E ANALOGS AND METHODS FOR THEIR USE” (priority 2004, published 2009)
